In one data set the target is Beta-secretase 1 (Homo sapiens, UniProt P56817). Kind of data set: Inhibition of BACE-1.
A further data set concerns P-gp. Kind of data set: (§1) Apparent permeability in human Caco-2 cells assessed as Pgp efflux ratio from basolateral to apical side to apical to basolateral side. Format: ADME, cell-based. On the technique in general: Passage across Caco-2 layers is used to estimate intestinal permeability.
A further data set has as its system Caco-2. Described as §1. Format: ADME, cell-based.

Consider three molecules from ChEMBL document CHEMBL1155328, “A conformational constraint improves a beta-secretase inhibitor but for an unexpected reason” (Bioorg Med Chem Lett, 2009).

Molecules are shown by their SMILES.

A word on the IC50: it is the concentration needed to halve the response being measured. In general, efflux ratio refers to the permeability from basolateral to apical divided by that in the opposite direction, in the common usage.

Chain of Beta-secretase 1 (P56817 whole entry): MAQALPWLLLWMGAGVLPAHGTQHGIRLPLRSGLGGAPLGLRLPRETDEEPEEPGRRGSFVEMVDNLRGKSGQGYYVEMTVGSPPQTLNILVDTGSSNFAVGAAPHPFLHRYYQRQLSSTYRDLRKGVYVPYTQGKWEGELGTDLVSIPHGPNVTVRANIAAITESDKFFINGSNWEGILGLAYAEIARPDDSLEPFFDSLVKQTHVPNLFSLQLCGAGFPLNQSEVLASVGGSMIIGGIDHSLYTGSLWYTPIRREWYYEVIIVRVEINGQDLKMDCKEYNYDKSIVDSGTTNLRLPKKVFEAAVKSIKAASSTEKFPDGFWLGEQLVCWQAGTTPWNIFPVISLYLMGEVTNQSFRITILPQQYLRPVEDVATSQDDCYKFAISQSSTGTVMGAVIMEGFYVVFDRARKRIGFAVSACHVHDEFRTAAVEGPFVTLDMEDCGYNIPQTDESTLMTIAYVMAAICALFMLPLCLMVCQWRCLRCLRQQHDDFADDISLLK

The molecule `COc1ccc2c(c1)CCC2(Cc1ccc(C(F)(F)F)cc1)c1cn(C)c(N)n1` (stereo not given) gave an IC50 on Beta-secretase 1 of 350 nM.

Molecule `COc1ccc2c(c1F)CCC2(Cc1ccc(C(F)(F)F)cc1)c1cn(C)c(N)n1` (stereo not given) yielded a half-maximal inhibitory concentration (IC50) against Beta-secretase 1 of 63 nM. In the data set on P-gp, the efflux ratio amounted to 3.6.

Take `COc1ccc(C(Cc2ccc(C(F)(F)F)cc2)c2cn(C)c(N)n2)cc1` (stereo not given): on Beta-secretase 1, 1800 nM corresponded to half-maximal inhibition (IC50). The Ratio in the data set on Caco-2 was found to be 4.
